Results taken from patent publication US20020197244A1, “Compositions and methods for regulating phagocytosis and ICAM-1 expression” (priority 1998, published 2002).
Entries after “also recorded” stand apart in the source; their conditions may differ.

B1: STI: Soybean trypsin inhibitor, a serine protease inhibitor capable of affecting the PAR-2 pathway (protein, UniProt P01070 25-205, looked up)
Trypsin inhibitor A: DFVLDNEGNPLENGGTYYILSDITAFGGIRAAPTGNERCPLTVVQSRNELDKGIGTIISSPYRIRFIAEGHPLSLKFDSFAVIMLCVGIPTEWSVVEDLPEGPAVKIGENKDAMDGWFRLERVSDDEFNNYKLVFCPQQAEDDKCGDIGISIDHDDGTRRLVVSKNKPLVVQFQKLDKESL

Key:
Assay type in all cases: cell-based
[1] = system: human primary keratinocytes; assay: Fluorescent microsphere ingestion by human primary keratinocytes; conditions: treated two days; Compound I 1μM, SLIGRL 10μM; vs vehicle control; FIG. 1
Procedure: In order to study the role of the PAR-2 pathway in phagocytosis, several in vitro model systems were used. One system used contained primary human keratinocytes or a human keratinocyte cell line. In this and a number of following examples, cells were treated with test compounds for different amounts of time (from one hour to three days), and samples were then incubated with fluorescent microspheres for two hours. The beads ingested by the cells were photographed using fluorescence microscopy.
In this example, human primary keratinocytes or the human keratinocyte cell line HaCaT were used as in vitro model systems to study the effect of PAR-2 regulators on keratinocyte phagocytosis. The human primary keratinocytes used are commercially available from Clonetics (San Diego, Calif.). Cells were plated on chamber slides, at 2 chambers/slide and 60,000 cells/chamber. […]
Microspheres were also found around the cell, probably because they are non-specifically attached to extracellular-matrix components secreted by the cell. The quantity of the microspheres ingested was changed with the treatments.

[2] = system: Human keratinocytes; assay: Timing of effect on keratinocyte microsphere phagocytosis; design: key: +: Plus signs indicate an effect on phagocytosis; −: minus signs indicate no effect on phagocytosis; −/+: plus/minus signs indicate a marginal effect on phagocytosis; conditions: effect = decrease for Compound I, increase for SLIGRL
Procedure: In this example, human primary keratinocytes or the human keratinocyte cell line HaCaT were used as in vitro model systems to study the effect of PAR-2 regulators on keratinocyte phagocytosis. The human primary keratinocytes used are commercially available from Clonetics (San Diego, Calif.). Cells were plated on chamber slides, at 2 chambers/slide and 60,000 cells/chamber. Cells were treated once daily, for two or three days, with Compound I (1μM), SLIGRL (10μM), or vehicle (Phosphate-buffered saline, (“PBS”) from Gibco-BRL (Gaithersburg, Md.). After two or three days of exposure to the test compounds, cells were exposed to Nile-red or FITC fluorescent microspheres, 1 μm in diameter, 50 microspheres/cell, for two hours at 37° C. Microspheres were from Molecular Probes (Eugene, Oreg.), and were processed according to manufacturer's instructions. Following that treatment, cells were incubated with 15% Fetal Bovine Serum (“FBS”, from Gibco-BRL), for 15 minutes at 37° C. and rinsed with PBS. At that time, chambers were separated from the slides, and the slides were covered with glycerol and coverslips. Fluorescent microscopy was performed using a Zeiss Axiovert 35 or a Nikon Optiphot-2 microscope.
Human keratinocytes were treated with Compound I or SLIGRL for periods of time ranging from one hour to two days. At the end of the treatment period, the cells were treated with microspheres as described in Example 1. […] Plus signs indicate an effect on phagocytosis, minus signs indicate no effect on phagocytosis, and plus/minus signs indicate a marginal effect on phagocytosis. The effects measured were a decrease for Compound I and an increase for SLIGRL. […] This implies that the PAR-2 signaling results in new protein synthesis, a reduction in protein synthesis when a turnover time is required to eliminate the existing relevant protein(s), or a rearrangement of proteins (as occurs in the reorganization of cytoskeletal components).

[3] = system: melanocyte cultures plated under epidermal equivalents (EpiDerm); assay: Pigmentation in equivalent-monolayer co-culture (no K-M contact); conditions: no keratinocyte-melanocyte contact
Procedure: (§1) Since PAR-2 is expressed in keratinocytes, but not in melanocytes, the possible requirement of keratinocyte-melanocyte contact was tested for the effect of Compound I and SLIGRL on melanosome phagocytosis by the keratinocytes. Primary melanocyte cultures (commercially available from Clonetics, San Diego) were plated under epidermal equivalents (EpiDerm, of MatTek, Ashland, Mass.) to create an equivalent-monolayer co-culture with no contact between keratinocytes and melanocytes. These co-cultures were compared to MelanoDerm equivalents (of MatTek), where melanocytes are present in the basal layer of the equivalent. Cultures were treated with Compound I, with the […], and with the PAR-2 agonist SLIGRL. As set forth in Table 3, keratinocytes are indicated by “K”, melanocytes are indicated by “M”, and lack of keratinocyte-melanocyte contact is indicated as “no K-M cont”. […] The same result was also observed with monolayer keratinocyte/melanocyte co-cultures having keratinocyte/melanocyte contact.

[4] = system: MelanoDerm equivalents; assay: Pigmentation in melanocyte-containing epidermal equivalents; conditions: keratinocyte-melanocyte contact
Procedure: as §1

[5] = system: ICAM-1; assay: ICAM-1 immuno-precipitation and Western blotting in keratinocytes; conditions: treated keratinocytes; FIG. 6B
Procedure: Immuno-precipitation and Western blotting experiments were performed, according to known methods, to assess the level of ICAM-1 protein in treated keratinocytes.

[6] = system: Human PMN cells; assay: PMN chemotactic migration towards FMLP, Boyden chamber; conditions: cells counted at 115 microns; PMN pretreated with 5 or 0.5 mg/ml STI or 1 or 0.1 μM Compound I; buffer without FMLP: 19 at 80 μ
Procedure: Since ICAM-1 is involved in cell migration, cell migration towards a chemotactic peptide was studied in cells treated with Compound I and STI. Human PMN cells were placed in one side of a Boyden chamber, using standard techniques, and a chemotactic peptide (FMLP) was placed in the other chamber. Cells were allowed to migrate into the second chamber, and the number of migrating cells per field and distance of migration were calculated. The experiment was repeated with PMN cells pretreated with one of the following: 5 or 0.5 mg/ml STI, 1 or 0.1 μM Compound I, a buffer vehicle, and with and without chemotactic peptide. The number of cells per field that migrated the same distance as the untreated control was measured. Without the peptide and with no treatment, an average of 19 cells/field were migrating a distance of 80 microns. […] In other words, no cells (or less than 5/field) were identified at 115 microns. […] The ability to inhibit PMN migration is an important constituent of anti-inflammatory compounds.

[7] = system: Keratinocytes; assay: Scanning electron microscopy of keratinocyte podia; conditions: treated two days; vs vehicle-treated controls; FIG. 8
Procedure: PAR-2 Effect on Phagocytosis and Migration Relates to Changes in Cell Shape Both phagocytosis and cell migration involve changes in cell shape. Therefore, the effect of the PAR-2 pathway reagents on cell podia were studied using scanning electron microscopy. Keratinocytes were treated with Compound I (identified as “SH00230”), SLIGRL and a buffer vehicle for two days, and then processed for SEM using standard techniques. […] In other words, the cells' “fingers” are shorter and malformed, so they cannot grasp objects as well as can the control cells. […] In other words, these cells have a greater probability for productive interaction with particles. Comparing these SEM pictures in FIG. 8, it is clear that SLIGRL-treated cells have a greater ability to interact with particles, while Compound I-treated cells are less suited for such a task.

| Molecule | quantity of ingested microspheres [1] | effect on phagocytosis ([2]; 1 hour of treatment) | effect on phagocytosis ([2]; 2 hours of treatment) | effect on phagocytosis ([2]; 4 hours of treatment) | effect on phagocytosis ([2]; 6 hours of treatment) | effect on phagocytosis ([2]; 8 hours of treatment) | effect on phagocytosis ([2]; 16 hours of treatment) | effect on phagocytosis ([2]; 24 hours of treatment) | effect on phagocytosis ([2]; 48 hours of treatment) | level of pigmentation, Equivalent Monolayer Co-culture (no K-M cont.) [3] | level of pigmentation, Epidermal Equivalents (K-M cont.) [4] | level of ICAM-1 protein expression [5] | Cells/Field [6] [cells/field] | shape of cell podia [7] |
| --- | --- | --- | --- | --- | --- | --- | --- | --- | --- | --- | --- | --- | --- | --- |
| CN[C@H](Cc1ccccc1)C(=O)N1CCCC1C(=O)N[C@@H](CCCNC(=N)N)C(=O)c1nc2ccccc2s1 (stereo partly drawn) [Compound I, (S)-N-Methyl-D-phenylalanyl-N-[4-[(aminoiminomethyl)amino]-1-(2-benzothiazolylcarbonyl)butyl]-L-prolinamide] | dramatic reduction in the quantity of ingested microspheres | − | − | − | − | −/+ | + | + | + | no effect | reduced; also recorded: lightening | decreased the level of ICAM-1 expression | <5 | dramatically shorter podia |
| SLIGRL [reference compound] | dramatic increase in the number of ingested microspheres | − | − | − | − | −/+ | + | + | + | no effect | induced pigmentation; also recorded: darkening | increased the level of ICAM-1 expression |  | podia were increased in number, were somewhat longer, and were much thinner |
| B1 |  |  |  |  |  |  |  |  |  |  |  |  | <5 |  |
